The subject of one data set is myopic progression. To be noted: ATOM trial, cited from earlier work.
For data set [1] the following is noted: pig, 24 h, 0.5 %.
Source text: (§1) To assess the vitreous penetration, dopamine (dopamine hydrochloride; Sigma-Aldrich, St. Louis, Mo., USA), and etilevodopa (BOC Sciences, Shirley, N.Y., USA) were freshly dissolved in phosphate buffered saline solution (PBS, pH 7.4; Aniara, West Chester, Ohio, USA) at the concentration of 0.5%, whereas levodopa (Sigma-Aldrich) was freshly dissolved in distilled water at 0.5%. Thirty microliters of each solution was placed onto the cornea of enucleated porcine eyes (Animal Technologies, Tyler, Tex., USA; at least six porcine eyes were studied for each treatment), which were no more than 30 hours since enucleation and were maintained on ice throughout experimentation. PBS was used as a vehicle control. The vitreous humor sample was collected after 24 hours for quantitative measurement of dopaminergic derivative level using an enzyme-linked immunosorbent assay (ELISA) kit according to the manufacturers' protocol (dopamine ELISA kit; Immuno-Biological Laboratories, Inc., Minneapolis, Minn., USA).
Data set [2] in a line: In vivo pharmacokinetics after a single topical treatment of etilevodopa 10% in Long Evans rat eyes. To be noted: single topical etilevodopa 10%, noncompartmental analysis. The method, then:
To assess the short-term pharmacokinetic effect, 5 μL of etilevodopa 10% was instilled onto a rat eye. At one, two, four, eight, and 24 hours, rats were sacrificed (at least three rats were studied at each time point). Serum was obtained by allowing the blood sample to clot at room temperature for 0.5 to 1 hour, followed by centrifuging at 13,000 rpm for 10 minutes (MiniSpin Eppendorf; Thermo Fisher Scientific, Waltham, Mass., USA). Serum was then frozen at −80° C. until tested. Eyes were enucleated and collected for quantitative measurement of dopaminergic derivative levels. Concentrations of dopaminergic derivative in both whole eye and vitreous/retina were measured for pharmacokinetic evaluation. Briefly, tissue samples were incubated with 150 μL lysis buffer (CelLytic MT Cell Lysis Reagent; Sigma-Aldrich) for 0.5 to 1 hour, followed by centrifuge at 13,000 rpm for 10 minutes, and the supernatant was collected. All samples were immediately frozen at −80° C. until tested. The level of dopaminergic derivative was measured in both serum and eye using a dopamine ELISA kit (Immuno-Biological Laboratories, Inc.) according to the manufacturer's instruction.

In a further data set the test system is Long Evans rat eyes. Description: Clinical examination, OCT imaging and ERG after once-daily topical etilevodopa. The data set is classed as in vivo. The method, then: Etilevodopa 10% 5 μL was administered as an eye drop once daily to one eye of each rat for 28 consecutive days, and the contralateral eye received PBS as a control. To assess the tolerability after administering etilevodopa over time, clinical examination was conducted at 14 and 28 days during treatment. To assess retinal structure and function, spectral-domain OCT (Spectralis HRA+OCT instrument; Heidelberg Engineering, Heidelberg, Germany) and full-field ERG (D300; Diagnosys LLC, Lowell, Mass., USA) were also performed at 14 and 28 days. Briefly, rats were first anesthetized with intraperitoneal injection of a mixture of ketamine hydrochloride (75 mg/kg; Hospira, Inc., Lake Forest, Ill., USA) and xylazine (5 mg/kg; Bedford Laboratories, Bedford, Ohio, USA). The corneas were topically anesthetized with tetracaine 0.5% (Alcon Laboratories, Inc. Fort Worth, Tex., USA), and the pupils were dilated with tropicamide 1% (Akorn, Inc., Lake Forest, Ill., USA) and phenylephrine hydrochloride 2.5% (Akorn, Inc.).
For clinical examination, 1% methylcellulose and a plastic coverslip were applied to the cornea to enhance visualization. A Zeiss OPMI MDO S5 Microscope (Prescott's, Inc., Monument, Col., USA) with an Excelis camera (ACCU-SCOPE, Inc., Commack, N.Y., USA) was used to digitally record ocular photos.
For OCT, 1% methylcellulose and a coverslip were placed on the anesthetized rat cornea. A commercially available 78-D double aspheric fundus lens (Volk Optical, Inc., Mentor, Ohio, USA) was mounted in front of the OCT and images were taken with proprietary software (Eye Explorer, version 3.2.1.0; Heidelberg Engineering). A raster scan of 19 equally spaced horizontal B-scans centered on the optic nerve was captured.
For full-field ERG, rats were dark-adapted overnight. A gold wire loop was placed on the cornea of both eyes, a reference electrode was placed subcutaneously on the nose, and a ground electrode was placed in the tail. ERG responses were recorded from both eyes simultaneously. The flash intensity was set at six increasing intensities of 0.0001, 0.001, 0.01, 0.1, 1, and 3 cd·s/m2. ERG recordings were averaged over 10 presentations of a single one-millisecond flash with a 10-second interstimulus interval. The A-wave amplitude was measured from the baseline to trough, while the B-wave was measured from the trough to peak.

The test system of a further data set is rat eyes. Put plainly: Histology and immunohistochemistry (H&E, cleaved caspase-3, TUNEL) of rat eyes. The format is in vivo, Long Evans rat. To be noted: 5 μL etilevodopa 10% once daily, 14 and 28 days. The method, then:
To assess for inflammation and apoptosis, 5 μL of etilevodopa 10% was administered as a once-daily eye drop to one eye of each rat, and the contralateral eye received PBS as a control. Rat eyes were enucleated at 14 and 28 days after treatment and fixed in 4% paraformaldehyde (VWR, Visalia, Calif., USA) overnight at 4° C., dehydrated in graded series of sucrose and alcohol, frozen, and cut into 12 μm sections onto glass slides.
For inflammation, frozen sections were first fixed in 10% formalin (Sigma-Aldrich) for 20 minutes and washed in water, followed by staining the nuclei with hematoxylin for three minutes and washing in water again. The slides were then dipped in lithium carbonate (bluing agent) for 45 seconds, washed in water, immersed in 95% ethanol (2-3 dips), and stained with eosin for another three minutes. After dehydrating in 95% ethanol for one minute and then in 100% ethanol for two minutes, the slides were mounted with Cytoseal 60 and imaged using Nikon Eclipse E800 microscope (Nikon Corp., Tokyo, Japan).
For apoptosis, sections were stained with cleaved caspase-3 (Cell Signaling, Beverly, Mass., USA). Briefly, sections were first washed with washing buffer (0.1% Triton X-100 in PBS) three times for five minutes each, blocked with 5% bovine serum albumin (Fraction V; Sigma-Aldrich) in washing buffer for one hour, followed by incubating in primary antibody-cleaved caspase-3 (1:200 in washing buffer) for two hours. After washing three times for five minutes each, sections were incubated in secondary antibody (AlexaFluor 488 donkey anti-rabbit IgG; 1:400; Invitrogen, Waltham, Mass., USA) in washing buffer for one hour, followed by washing another three times and mounting with 4′,6-diamidino-2-phenylindole (DAPI)-containing mounting media (Vectashield; Vector Laboratories, Burlingame, Calif., USA). Slides were imaged using Leica DMi8 microscope (Leica Microsystems Inc., Buffalo Grove, Ill., USA). Terminal deoxynucleotidyl transferase dUTP nick end labeling (TUNEL) assay was also performed to further detect apoptosis using TUNEL label mix kit (Sigma-Aldrich). […]

Data set [3] can be described thus: Maximum solubility / achievable concentration of topical solutions. The data set is classed as physicochemical. The source says:
PBS was used as a vehicle control.

The nature of data set [4]: Observation of rat behavior during the 28-day study. The format is in vivo. To be noted: once-daily topical etilevodopa.
Data set [5] can be described thus: Ex vivo ocular penetration of dopamine and dopaminergic derivatives in enucleated porcine eyes (dopamine ELISA). To be noted: topical.
Source text: as §1
The conditions of data set [6]: ibopamine for hypotony, before 24 weeks; cited from earlier work.
For data set [7], the system named is axial elongation. Description: Reduction of axial elongation by levodopa in chicks (Thomson et al.). The data set is classed as in vivo. To be noted: Gallus gallus; calculated using a chick vitreous volume of 200 μL; read-out: EC50 as intravitreal concentration.
Data set [8] concerns axial elongation. To be noted: chick, Thomson et al., cited from earlier work.
A further data set deals with intravitreal dopamine. To be noted: chick eyes with negative lenses, after three days of treatment; cited from earlier work.
The mark [9] stands for this setting: 1% atropine nightly in one eye over two years.

≈ marks a conversion by molar mass, not a printed value. Where a name gives a salt, the structure may show the parent alone. Read-outs that look alike come from different tables or passages of the source.

Consider `CN1[C@@H]2CC[C@H]1C[C@@H](OC(=O)C(CO)c1ccccc1)C2` (some centres unmarked) [atropine], for which, in the data set on myopic progression (setting [9]), the diopter difference result is listed as “~+0.8 diopter” and the “reduction of myopic progression” value is recorded as 77%. In addition, the axial length entry with myopic progression (1% atropine nightly over two years) is on record as “remained unchanged”.
For `NCCc1ccc(O)c(O)c1` [dopamine, dopamine hydrochloride], in data set [1], the “concentration of dopaminergic derivatives in the vitreous” value was 375.1 ng/mL and the “fold higher intravitreal concentration as compared to etilevodopa 10%” value is 10 fold.
With `CCOC(=O)[C@@H](N)Cc1ccc(O)c(O)c1` [etilevodopa], the AUC0→∞ in [2] (blood) came out at 11.2 ng·h/mL. The compound also showed an AUC0→∞ in data set [2] (retina/vitreous) of 818 ng·h/mL. Moreover, the AUC0→∞ in data set [2] (whole eye) was determined as 4300 ng·h/mL. Further, in the data set on Long Evans rat eyes (four-week application as a topical eye drop), the direct toxicity entry was “no evidence of direct toxicity”. In the data set with Long Evans rat eyes (in vivo), the “ERG A-wave amplitude, treated vs control eyes” value is “no statistically significant difference”; the “ERG B-wave amplitude, treated vs control eyes” value was “no statistically significant difference”; the OCT retinal structure result is given as “did not demonstrate any qualitative structural changes”; the “clinical eye photos (inflammatory response, corneal opacity, fundus abnormalities, conjunctival redness)” value is reported as “no evidence of inflammatory response, corneal opacity, fundus abnormalities, or conjunctival redness”. For the same compound, in the data set with Long Evans rat eyes (in vivo), the “cornea and lens clarity” value is “remained clear”; the “overall retina morphology and blood vessels” value is reported as “remained unchanged”; the “retinal detachment, edema or inflammation” value is given as “No retinal detachment, edema or inflammation was observed”. For the same compound, in the data set with rat eyes, the “TUNEL+ DAPI+ cells” value is recorded as “no TUNEL+ DAPI+ cells observed”; the “hematoxylin and eosin staining of the retina” value is “no infiltration of inflammatory cells, fibrosis or morphological changes”; the “number of cleaved caspase-3+ DAPI+ cells, treatment vs control” value is “no statistically significant change”. This compound also displayed a maximum solubility in [3] (PBS, pH 7.4) of 10%. For the same compound, in [4], the “rat behavior (activity levels, aggression, feeding pattern, weight gain)” value is recorded as “no obvious changes in rat behavior”. Besides, in data set [5], the “corneal penetration as compared to levodopa at a given concentration” value was “did not exhibit enhanced corneal penetration”.
`CNCCc1ccc(OC(=O)C(C)C)c(OC(=O)C(C)C)c1` [ibopamine]: the “patients who stopped using the drug due to follicular conjunctivitis or irritation” value in data set [6] is 8 of 17.
As to `N[C@@H](Cc1ccc(O)c(O)c1)C(=O)O` [levodopa], the maximum concentration achievable in data set [3] (distilled water) amounted to 0.5%. Moreover, the EC50 in the data set with axial elongation [7] was roughly 7.9 ng/mL (≈ 0.0401 µM); in the data set on axial elongation [8] (intravitreal administration, 10 μL dose, read-out: EC50 for a reduction of axial elongation), 800 nM. Moreover, in data set [1], the “concentration of dopaminergic derivatives in the vitreous” value is listed as 11.9 ng/mL. For the same compound, in the data set on axial elongation [8] (topical levodopa), the “EC50 for a reduction of axial elongation” value was 0.05%.
In the case of “insulin (Insulin B chain AANQHLCGSHLVEALYLVCGERGFFYSPKA; Insulin A chain GIVEQCCHNTCSLYQLENYCN; UniProt P67970 25-54; P67970 87-107, looked up) [insulin injected into chick eyes treated with negative lenses]”, the “increase in intravitreal dopamine” value with intravitreal dopamine is given as 2 fold.

Source of the values: patent US20240065999A1, “Ophthalmic Formulation Containing a Dopaminergic Prodrug that may be Combined with One or More Agents” (The Board of Trustees of the Leland Stanford Junior …, priority 2020, published 2024).
